The target of this assay is T1, human 5HT1A-serotonergic receptor (Homo sapiens, UniProt P08908).
T1 construct: expressed in transfected cells; host or cells: HeLa (human cell line), stably transfected; cell membranes used
T1 sequence (P08908 1-422): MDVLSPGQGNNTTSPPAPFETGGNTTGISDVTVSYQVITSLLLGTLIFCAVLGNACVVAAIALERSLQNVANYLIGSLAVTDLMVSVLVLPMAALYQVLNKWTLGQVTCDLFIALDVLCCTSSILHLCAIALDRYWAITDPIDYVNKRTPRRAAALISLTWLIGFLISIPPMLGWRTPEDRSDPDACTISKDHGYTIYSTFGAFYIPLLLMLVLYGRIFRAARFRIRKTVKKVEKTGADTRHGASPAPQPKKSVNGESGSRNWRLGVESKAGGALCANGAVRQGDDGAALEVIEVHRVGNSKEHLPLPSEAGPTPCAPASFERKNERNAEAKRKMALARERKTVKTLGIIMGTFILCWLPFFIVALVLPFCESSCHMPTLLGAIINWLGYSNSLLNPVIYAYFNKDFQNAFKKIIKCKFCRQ
Kind of assay: Radioligand binding to recombinant 5-HT1A receptors. As to conditions: [3H]8-OH-DPAT 1 nM, membranes of HeLa cells with human 5-HT1A receptor; Ki from IC50 by Cheng & Prusoff; read-out: Binding affinity for 5HT1A receptors, Ki. The procedure: Genomic clone G-21 coding for the human 5HT1A-serotonergic receptor was stably transfected in a human cell line (HeLa). HeLa cells were grown as monolayers in Dulbecco's modified Eagle medium (DMEM), containing 10% foetal bovine serum, gentamicin ([…]) and 5% carbon dioxide, at 37° C. The cells were detached from the growth flask at 95% confluence by a cell scraper and were lysed in cold 5 mM Tris and 5 mM EDTA buffer (pH 7.4). The homogenates were centrifuged at 40000×g×20 minutes and the pellets were resuspended in a small volume of cold 5 mM Tris and 5 mM EDTA buffer (pH 7.4) and immediately frozen and stored at −70° C. until use. On the day of experiment, the cell membranes were resuspended in incubation buffer: 50 mM Tris HCl (pH 7.4), 2.5 mM MgCl2, […] (Fargin et al., Nature 335, 358-360, 1988). The membranes were incubated in a final volume of 1 ml for 30 minutes at 30° C. with 1 nM [^3H]8-OH-DPAT, in the absence or presence of the test compounds. Non-specific binding was determined in the presence of 10 μM 5-HT. Incubation was stopped by addition of cold Tris-HC 1 buffer and rapid filtration through a 0.2%-polyethyleneimine-pretreated Whatman-GF/B or Schleicher-&-Schuell-GF52 filter.
The affinity of the tested compounds was evaluated as inhibition of specific binding of the radioligand to 5-HT1A receptors (IC50) by using the non-linear curve-fitting program Allfit (De Lean et al., Am. J. Physiol. 235, E97-E102 (1978). The IC50 value was converted to an affinity constant (Ki) by the equation of Cheng & Prusoff (Cheng Y. C., Prusoff W. H., Biochem. Pharmacol. 22, 3099-3108 (1973)).
In the case of `COc1ccc(C#N)cc1N1CCN(CC2CCc3ccccc3N2C(=O)C2CCCCC2)CC1` (stereo not shown) [Example 35A24, 1-(5-Cyano-2-methoxyphenyl)-4-(1-cyclohexanecarbonyl-1,2,3,4-tetrahydroquinoline-2-ylmethyl)piperazine], the Ki (commonly the equilibrium dissociation constant of an inhibitor or competing ligand from its target) was found to be 11.6 nM.
`CC(=O)n1ccc2c(N3CCN(CC4CCc5ccccc5N4C(=O)C4CCCCC4)CC3)cccc21` (stereo not shown) [Example 35A25, 1-(1-Acetyl-4-indolyl)-4-(1-cyclohexanecarbonyl-1,2,3,4-tetrahydroquinoline-2-ylmethyl)piperazine]: the Ki turned out to be 10.1 nM.
Regarding `O=C(C1CCCCC1)N1c2ccccc2CCC1CN1CCN(c2cccc3cc[nH]c23)CC1` (stereo not shown) [Example 35A26, 1-(1-Cyclohexanecarbonyl-1,2,3,4-tetrahydroquinoline-2-ylmethyl)-4-(7-indolyl)piperazine], the Ki is 3.1 nM.
As to `O=C(C1CCCCC1)N1c2ccccc2CCC1CN1CCN(Cc2ccccc2Br)CC1` (stereo not shown) [Example 35A29, 1-(2-Bromobenzyl)-4-(1-cyclohexanecarbonyl-1,2,3,4-tetrahydroquinoline-2-ylmethyl)piperazine], the Ki turned out to be 31.1 nM.
The value for `O=C(C1CCCCC1)N1c2ccccc2CCC1CN1CCN(c2ccc(Br)c3[nH]ccc23)CC1` (stereo not shown) [Example 35A32, 1-(7-Bromo-4-indolyl)-4-(1-cyclohexanecarbonyl-1,2,3,4-tetrahydroquinoline-2-ylmethyl)piperazine] was 20 nM; that for `O=C(C1CCCCC1)N1c2ccccc2CCC1CN1CCN(Cc2ccccc2Cl)CC1` (stereo not shown) [Example 35A34, 1-(2-Chlorobenzyl)-4-(1-cyclohexanecarbonyl-1,2,3,4-tetrahydroquinoline-2-ylmethyl)piperazine] was 12.3 nM; that for `COc1cccc(N2CCN(CC3CCc4ccccc4N3C(=O)C3CCCCC3)CC2)n1` (stereo not shown) [Example 35A35, 1-(1-Cyclohexanecarbonyl-1,2,3,4-tetrahydroquinoline-2-ylmethyl)-4-(6-methoxy-2-pyridinyl)piperazine] was 6.2 nM.
The value for `O=C(C1CCCCC1)N1c2ccccc2CCC1CN1CCN(Cc2cc(Cl)ccc2Cl)CC1` (stereo not shown) [Example 35A36, 1-(1-Cyclohexanecarbonyl-1,2,3,4-tetrahydroquinoline-2-ylmethyl)-4-(2,5-dichlorobenzyl)piperazine] was 2.4 nM; that for `O=C(N1CCCCC1)N1c2ccccc2CCC1CN1CCN(c2cccc3[nH]ccc23)CC1` (stereo not shown) [Example 36, 1-(4-Indolyl)-4-(1-piperidinocarbonyl-1,2,3,4-tetrahydroquinoline-2-ylmethyl)piperazine] was 15.6 nM.
With `O=C(C1CCCCC1)N1c2c(F)cccc2CCC1CN1CCN(c2cccc3[nH]ccc23)CC1` (stereo not shown) [Example 38, 1-(1-Cyclohexanecarbonyl-8-fluoro-1,2,3,4-tetrahydroquinoline-2-ylmethyl)-4-(4-indolyl)piperazine] the figure was 17.3 nM; with `Cn1ccc2c(N3CCN(C[C@H]4CCc5ccccc5N4C(=O)C4CCCCC4)CC3)cccc21` [Example 43, (R)-1-(1-Cyclohexanecarbonyl-1,2,3,4-tetrahydroquinoline-2-ylmethyl)-4-(1-methyl-4-indolyl)piperazine], 5 nM.
With `O=C(C1CCC(O)CC1)N1c2ccccc2CCC1CN1CCN(c2cccc3[nH]ccc23)CC1` (stereo not shown) [Example 44, (Z)-1-[1-(4-Hydroxycyclohexanecarbonyl)-1,2,3,4-tetrahydroquinoline-2-ylmethyl]-4-(4-indolyl)piperazine], the inhibitory constant (Ki) amounted to 30 nM.
With `O=C(C1CCCCC1)N1c2cc(F)ccc2CCC1CN1CCN(c2cccc3[nH]ccc23)CC1` (stereo not shown) [Example 46, 1-(1-Cyclohexanecarbonyl-7-fluoro-1,2,3,4-tetrahydroquinoline-2-ylmethyl)-4-(4-indolyl)piperazine] the figure was 11.2 nM; with `O=C(C1CCCCC1)N1c2ccccc2CC1CN1CCN(c2cccc3[nH]ccc23)CC1` (stereo not shown) [Example 48, 1-(1-Cyclohexanecarbonyl-2,3-dihydroindole-2-ylmethyl)-4-(4-indolyl)piperazine], 17.7 nM.
As to `O=C(C1CCCCC1)N1c2ccc(O)cc2CCC1CN1CCN(c2cccc3[nH]ccc23)CC1` (stereo not shown) [Example 50, 1-(1-Cyclohexanecarbonyl-6-hydroxy-1,2,3,4-tetrahydroquinoline-2-ylmethyl)-4-(4-indolyl)piperazine], the inhibition constant Ki was 41 nM.
In the case of `COc1cc(F)ccc1N1CCN(CC2CCc3cc(C)ccc3N2C(=O)C2CCCCC2)CC1` (stereo not shown) [Example 53, 1-(1-Cyclohexanecarbonyl-6-methyl-1,2,3,4-tetrahydroquinoline-2-ylmethyl)-4-(4-fluoro-2-methoxyphenyl)piperazine], the Ki came to 24.2 nM.
`N#CNCCC(=O)N1c2ccccc2CCC1CN1CCN(c2cccc3[nH]ccc23)CC1` (stereo not shown) [Example 54, 1-[1-(3-Cyanominopropionyl)-1,2,3,4-tetrahydroquinoline-2-ylmethyl]-4-(4-indolyl)piperazine]: the Ki was 51 nM.
The value for `COc1cc(F)ccc1N1CCN(CC2CCc3c(Cl)cccc3N2C(=O)C2CCCCC2)CC1` (stereo not shown) [Example 55, 1-(5-Chloro-1-cyclohexanecarbonyl-1,2,3,4-tetrahydroquinoline-2-ylmethyl)-4-(4-fluoro-2-methoxyphenyl)piperazine] was 2.4 nM; that for `COc1ccc(C(=O)N2c3cccc(Cl)c3CCC2CN2CCN(c3ccc(F)cc3OC)CC2)cc1` (stereo not shown) [Example 56, 1-[5-Chloro-1-(4-methoxybenzoyl)-1,2,3,4-tetrahydroquinoline-2-ylmethyl]-4-(4-fluoro-2-methoxyphenyl)piperazine] was 3.6 nM; that for `COc1cc(F)ccc1N1CCN(CC2CCc3ccc(Cl)cc3N2C(=O)C2CCCCC2)CC1` (stereo not shown) [Example 57, 1-(7-Chloro-1-cyclohexanecarbonyl-1,2,3,4-tetrahydroquinoline-2-ylmethyl)-4-(4-fluoro-2-methoxyphenyl)piperazine] was 2.3 nM.
Regarding `O=C(C1CCCCC1)N1c2ccccc2CCC1CN1CCN(c2cc(Cl)ccc2F)CC1` (stereo not shown) [Example 60A1, 1-(5-Chloro-2-fluorophenyl)-4-(1-cyclohexanecarbonyl-1,2,3,4-tetrahydroquinoline-2-ylmethyl)piperazine], the inhibition constant Ki amounted to 8.1 nM.
The value for `O=C(C1CCCCC1)N1c2ccccc2CCC1CN1CCN(c2cccc3nonc23)CC1` (stereo not shown) [Example 60A8, 1-[4-(2,1,3-Benzoxadiazolyl)]-4-(1-cyclohexanecarbonyl-1,2,3,4-tetrahydroquinoline-2-ylmethyl)piperazine] was 12.2 nM; that for `COc1ccc(C(F)(F)F)cc1N1CCN(CC2CCc3ccccc3N2C(=O)C2CCCCC2)CC1` (stereo not shown) [Example 60A9, 1-(1-Cyclohexanecarbonyl-1,2,3,4-tetrahydroquinoline-2-ylmethyl)-4-(2-methoxy-5-trifluoromethylphenyl)piperazine] was 6.5 nM.
In the case of `O=C(C1CCCCC1)N1c2ccccc2CCC1CN1CCN(C2CCCc3ccccc32)CC1` (stereo not shown) [Example 60A10, 1-(1-Cyclohexanecarbonyl-1,2,3,4-tetrahydroquinoline-2-ylmethyl)-4-[1-(1,2,3,4-tetrahydronaphthyl)]piperazine], the inhibition constant (Ki) was 31.6 nM.
Take `O=C(C1CCCCC1)N1c2ccccc2CCC1CN1CCN(c2cc(Cl)cc3c2OCCO3)CC1` (stereo not shown) [Example 60A11, 1-(7-Chloro-2,3-dihydro-1,4-benzodioxin-5-yl)-4-(1-cyclohexanecarbonyl-1,2,3,4-tetrahydroquinoline-2-ylmethyl)piperazine]: the Ki amounted to 10.6 nM.
On to `COc1cc(Cl)ccc1N1CCN(CC2CCc3ccccc3N2C(=O)C2CCCCC2)CC1` (stereo not shown) [Example 62A2, 1-(4-Chloro-2-methoxyphenyl)-4-(1-cyclohexanecarbonyl-1,2,3,4-tetrahydroquinoline-2-ylmethyl)piperazine], for which the inhibition constant (Ki) stood at 15.6 nM.
With `CCOc1cc(Cl)ccc1N1CCN(CC2CCc3ccccc3N2C(=O)C2CCCCC2)CC1` (stereo not shown) [Example 62A3, 1-(4-Chloro-2-ethoxyphenyl)-4-(1-cyclohexanecarbonyl-1,2,3,4-tetrahydroquinoline-2-ylmethyl)piperazine], the Ki stood at 5.7 nM.
For the molecule `Cc1ccc(N2CCN(CC3CCc4ccccc4N3C(=O)C3CCCCC3)CC2)c2cc[nH]c12` (stereo not shown) [Example 62A5, 1-(1-Cyclohexanecarbonyl-1,2,3,4-tetrahydroquinoline-2-ylmethyl)-4-(7-methyl-4-indolyl)piperazine], the Ki came to 31.2 nM.

For the origin of these results see patent US20030162777A1, “Novel N-acylated heterocycles” (Recordati S.A., priority 2001, published 2003).
